Test results published in patent US11980609B2, “LPA receptor antagonists and uses thereof” (Gilead Sciences, Inc., priority 2021, dated 2024).

Target: T1, human LPAR1 (Homo sapiens, UniProt Q92633)
T1 construct: host or cells: CHO-K1
Experiment: LPAR1 intracellular calcium mobilization assay (antagonist mode)
Type: cell-based
Conditions: CHO-K1 EDG2 cells expressing human LPAR1; 60 min pre-incubation with compound (0.5 nM to 10 μM), then LPA 18:2 challenge; FLIPR Tetra calcium signal
Description: In vitro LPAR1 activity was measured in an intracellular calcium mobilization assay.
CHO-K1 EDG2 cells (DiscoverX cat #93-0644C2) expressing human LPAR1 (NM_001401.3) were seeded in a total volume of 25 μL of Dulbecco's Modification of Eagle's Medium (DMEM) with 10% Fetal Bovine Serum, 1× PenStrepGlutamine, 300 μg/ml Hygromycin, and 800 μg/ml G418 into 384-well tissue culture plate (Grenier #781091) at 15,000 cells/well and incubated at 37° C. overnight. Prior to testing, 25 μL Calcium Loading Dye Component A (FLIPR Calcium 6 Assay Kit Molecular Device #R8190) and 2.5 mM Probenecid (Invitrogen #P36400, prepared fresh) in Hank's Balanced Salt Solution (Corning #21-023-CV), 20 mM HEPES (Corning #25-060-CI), 0.1% Bovine Serum Albumin (Sigma-Aldrich #A7906-500G) was add to the cells for 60 minutes at 37° C.
Agonist dose curves of LPA 18:2 (Avanti Polar Lipids cat #857138, 0.5 nM to 10 μM) were recorded to determine the LPA 18:2 EC80 for subsequent antagonist assays. For agonist dose curves, cells were removed from the incubator 2 hours after dye loading and transferred to the FLIPR Tetra instrument (Molecular Devices, San Jose, CA). Calcium mobilization was monitored for 5 min and 10 μL 6×LPA in HBSS/20 mM Hepes/0.1% bovine serum albumin (BSA) was added to the cells 5 seconds into the assay.
To determine the LPAR1 antagonist activity of test compounds, cells were pre-incubated with test compound at a dose range of 0.5 nM to 10 μM, followed by LPA at […] concentration (100 nM). After dye loading, cells were removed from the incubator and 0.3 μL of 200× antagonist was added. Cells were incubated for 60 minutes at 37° C. Antagonist activity was measured on a FLIPR Tetra. Calcium mobilization was monitored for 3.5 minutes and 10 μL 6×EC80 LPA in HBSS, 20 mM HEPES, and 0.1% BSA was added to the cells 5 seconds into the assay. Signal amplitude (Maximum minus minimum) values were plotted against log10 of antagonist concentration using Dose Response Tool (Gilead Sciences Inc.) to determine EC50.
To assess the antagonistic potential of exemplified compounds EC50 values were determined for Compounds 1 to 55 in the LPAR1 calcium mobilization assay. The compound numbers correspond to the compound numbers in Examples 1 to 35. N/A=not available.

T1 sequence (Q92633 whole entry): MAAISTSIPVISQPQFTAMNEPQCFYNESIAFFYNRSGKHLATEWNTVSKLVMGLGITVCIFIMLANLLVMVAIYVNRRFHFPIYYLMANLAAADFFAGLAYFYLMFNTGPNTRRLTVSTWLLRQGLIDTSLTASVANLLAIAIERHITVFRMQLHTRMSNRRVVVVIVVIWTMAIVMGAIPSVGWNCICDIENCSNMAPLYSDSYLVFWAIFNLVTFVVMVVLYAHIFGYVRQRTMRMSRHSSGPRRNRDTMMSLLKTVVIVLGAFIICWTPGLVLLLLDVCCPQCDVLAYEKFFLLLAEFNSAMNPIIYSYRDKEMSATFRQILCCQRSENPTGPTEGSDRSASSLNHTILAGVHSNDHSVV

SMILES	EC50
C[C@@H](OC(=O)Nc1c(-c2ncc(NC(=O)C3(C)CC(F)(F)C3)cn2)cnn1C)c1cc(F)cnc1F [Compound 35, (R)-1-(2,5-difluoropyridin-3-yl)ethyl (4-(5-(3,3-difluoro-1-methylcyclobutane-1-carboxamido)pyrimidin-2-yl)-1-methyl-1H-pyrazol-5-yl)carbamate]	14 nM
C[C@@H](OC(=O)Nc1c(-c2ncc(NC(=O)C3CC(F)(F)C3)cn2)cnn1C)c1cc(F)cnc1F [Compound 36, (R)-1-(2,5-difluoropyridin-3-yl)ethyl (4-(5-(3,3-difluorocyclobutane-1-carboxamido)pyrimidin-2-yl)-1-methyl-1H-pyrazol-5-yl)carbamate]	18.6 nM
C[C@@H](OC(=O)Nc1c(-c2ncc(NC(=O)C3(C(F)F)CC(F)(F)C3)cn2)cnn1C)c1cc(F)cnc1F [Compound 37, (R)-1-(2,5-difluoropyridin-3-yl)ethyl (4-(5-(1-(difluoromethyl)-3,3-difluorocyclobutane-1-carboxamido)pyrimidin-2-yl)-1-methyl-1H-pyrazol-5-yl)carbamate]	7.9 nM
C[C@@H](OC(=O)Nc1c(-c2ncc(NC(=O)[C@]3(C)C[C@@H](C#N)C3)cn2)cnn1C)c1cc(F)cnc1F [Compound 38, (R)-1-(2,5-difluoropyridin-3-yl)ethyl (4-(5-((1r,3R)-3-cyano-1-methylcyclobutane-1-carboxamido)pyrimidin-2-yl)-1-methyl-1H-pyrazol-5-yl)carbamate]	52.7 nM
C[C@@H](OC(=O)Nc1c(-c2ncc(NC(=O)[C@@H]3C[C@H]3C#N)cn2)cnn1C)c1cc(F)cnc1F [Compound 39, (R)-1-(2,5-difluoropyridin-3-yl)ethyl (4-(5-((1R,2R)-2-cyanocyclopropane-1-carboxamido)pyrimidin-2-yl)-1-methyl-1H-pyrazol-5-yl)carbamate]	66.7 nM
C[C@@H](OC(=O)Nc1c(-c2ncc(NC(=O)[C@@H]3C[C@H]3C(F)(F)F)cn2)cnn1C)c1cccnc1F [Compound 40, (R)-1-(2-fluoropyridin-3-yl)ethyl (1-methyl-4-(5-((1R,2R)-2-(trifluoromethyl)cyclopropane-1-carboxamido)pyrimidin-2-yl)-1H-pyrazol-5-yl)carbamate]	< 4.6 nM
C[C@@H](OC(=O)Nc1c(-c2ncc(NC(=O)C3(C)CC(F)(F)C3)cn2)cnn1C)c1cccnc1F [Compound 41, (R)-1-(2-fluoropyridin-3-yl)ethyl (4-(5-(3,3-difluoro-1-methylcyclobutane-1-carboxamido)pyrimidin-2-yl)-1-methyl-1H-pyrazol-5-yl)carbamate]	20.7 nM
C[C@@H](OC(=O)Nc1c(-c2ncc(NC(=O)C3(C#N)CC3)cn2)cnn1C)c1cccnc1F [Compound 42, (R)-1-(2-fluoropyridin-3-yl)ethyl (4-(5-(1-cyanocyclopropane-1-carboxamido)pyrimidin-2-yl)-1-methyl-1H-pyrazol-5-yl)carbamate]	54.9 nM
COC1(C#N)CC(C(=O)Nc2cnc(-c3cnn(C)c3NC(=O)O[C@H](C)c3cc(F)cnc3F)nc2)C1 (stereo partly drawn) [Compound 43, (R)-1-(2,5-difluoropyridin-3-yl)ethyl (4-(5-(3-cyano-3-methoxycyclobutane-1-carboxamido)pyrimidin-2-yl)-1-methyl-1H-pyrazol-5-yl)carbamate]	22.6 nM
C[C@@H](OC(=O)Nc1c(-c2ncc(O)cn2)cnn1C)c1cccnc1Cl [Compound 44, (R)-1-(2-chloropyridin-3-yl)ethyl (4-(5-hydroxypyrimidin-2-yl)-1-methyl-1H-pyrazol-5-yl)carbamate]	120 nM
C[C@@H](OC(=O)Nc1c(-c2ncc(O)cn2)cnn1C)c1cc(F)cnc1F [Compound 45, (R)-1-(2,5-difluoropyridin-3-yl)ethyl (4-(5-hydroxypyrimidin-2-yl)-1-methyl-1H-pyrazol-5-yl)carbamate]	301 nM
C[C@@H](OC(=O)Nc1c(-c2ncc(C(=O)NC34CC(C#N)(C3)C4)cn2)cnn1C)c1cc(F)cnc1F [Compound 46, (R)-1-(2,5-difluoropyridin-3-yl)ethyl (4-(5-((3-cyanobicyclo[1.1.1]pentan-1-yl)carbamoyl)pyrimidin-2-yl)-1-methyl-1H-pyrazol-5-yl)carbamate]	158 nM
C[C@@H](OC(=O)Nc1c(-c2ncc(C(=O)NC34CC(F)(C3)C4)cn2)cnn1C)c1cc(F)cnc1F [Compound 47, (R)-1-(2,5-difluoropyridin-3-yl)ethyl (4-(5-((3-fluorobicyclo[1.1.1]pentan-1-yl)carbamoyl)pyrimidin-2-yl)-1-methyl-1H-pyrazol-5-yl)carbamate]	799 nM
C[C@@H](OC(=O)Nc1c(-c2ccc(C(=O)NC34CC(C#N)(C3)C4)cn2)cnn1C)c1cccc(F)c1 [Compound 49]	1860 nM
C[C@@H](OC(=O)Nc1c(-c2ccc(C(=O)NC34CC(F)(C3)C4)cn2)cnn1C)c1cccnc1Cl [Compound 50]	869 nM
C[C@@H](OC(=O)Nc1c(-c2ncc(NS(C)(=O)=O)cn2)cnn1C)c1ccccc1F [Compound 51, (R)-1-(2-fluorophenyl)ethyl (1-methyl-4-(5-(methylsulfonamido)pyrimidin-2-yl)-1H-pyrazol-5-yl)carbamate]	36.4 nM
C[C@@H](OC(=O)Nc1c(-c2ncc(C(O)C(F)(F)F)cn2)cnn1C)c1cc(F)cnc1F (stereo partly drawn) [Compound 53, (R)-1-(2,5-difluoropyridin-3-yl)ethyl (1-methyl-4-(5-(2,2,2-trifluoro-1-hydroxyethyl)pyrimidin-2-yl)-1H-pyrazol-5-yl)carbamate]	745 nM
C[C@@H](OC(=O)Nc1c(-c2ncc(C(F)F)cn2)cnn1C)c1cc(F)cnc1F [Compound 54, (R)-1-(2,5-difluoropyridin-3-yl)ethyl (4-(5-(difluoromethyl)pyrimidin-2-yl)-1-methyl-1H-pyrazol-5-yl)carbamate]	2880 nM
C[C@@H](OC(=O)Nc1c(-c2ncc(OC(F)F)cn2)cnn1C)c1cc(F)cnc1F [Compound 55, (R)-1-(2,5-difluoropyridin-3-yl)ethyl (4-(5-(difluoromethoxy)pyrimidin-2-yl)-1-methyl-1H-pyrazol-5-yl)carbamate]	1780 nM
